Assay results published in the supplement of paper PMC12076712.
One block for each molecule: values may come before it.

Assays:
Test in all cases: pIC50, kinobeads binding competition
[1] = molecular target: T1, TNK1 (UniProt Q13470); details: cell material: Lysate mix
T1 sequence (whole entry): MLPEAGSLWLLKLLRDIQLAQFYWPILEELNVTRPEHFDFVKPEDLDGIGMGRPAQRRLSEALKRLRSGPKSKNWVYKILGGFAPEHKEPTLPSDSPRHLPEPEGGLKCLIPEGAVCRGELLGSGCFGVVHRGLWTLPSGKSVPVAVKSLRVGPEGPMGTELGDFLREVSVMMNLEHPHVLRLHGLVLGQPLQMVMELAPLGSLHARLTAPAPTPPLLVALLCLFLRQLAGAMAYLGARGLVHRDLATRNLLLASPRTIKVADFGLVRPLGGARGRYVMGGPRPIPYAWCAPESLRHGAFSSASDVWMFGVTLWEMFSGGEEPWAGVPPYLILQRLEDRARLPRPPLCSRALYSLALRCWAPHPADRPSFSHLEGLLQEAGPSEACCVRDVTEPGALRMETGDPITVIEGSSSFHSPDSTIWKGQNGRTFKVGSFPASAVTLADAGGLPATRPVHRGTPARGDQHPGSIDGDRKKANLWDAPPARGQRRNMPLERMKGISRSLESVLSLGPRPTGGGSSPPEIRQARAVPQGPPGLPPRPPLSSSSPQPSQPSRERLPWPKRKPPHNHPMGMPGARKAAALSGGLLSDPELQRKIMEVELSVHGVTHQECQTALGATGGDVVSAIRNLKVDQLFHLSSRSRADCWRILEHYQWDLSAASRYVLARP
Method in brief: (§1)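 pIC50 was obtained by fitting fold changes against vehicle to logistic dose-response curves with the R drc package, using biological duplicates. Kinobeads-bound proteins were digested and measured by TMT10 LC-MS/MS. Before this, either living Jurkat cells received nine compound concentrations (top 30 μM, 1:4 steps) for 60 min at 37 °C prior to lysis, or Jurkat lysate or a 1:1:1:1 HEK293/K-562/HepG2/placenta lysate mix received nine concentrations (top 30 μM, 1:5 steps) for 60 min at 4 °C.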

[2] = molecular target: MAP4K4 (UniProt O95819)
MAP4K4, sequence (O95819 whole entry, looked up): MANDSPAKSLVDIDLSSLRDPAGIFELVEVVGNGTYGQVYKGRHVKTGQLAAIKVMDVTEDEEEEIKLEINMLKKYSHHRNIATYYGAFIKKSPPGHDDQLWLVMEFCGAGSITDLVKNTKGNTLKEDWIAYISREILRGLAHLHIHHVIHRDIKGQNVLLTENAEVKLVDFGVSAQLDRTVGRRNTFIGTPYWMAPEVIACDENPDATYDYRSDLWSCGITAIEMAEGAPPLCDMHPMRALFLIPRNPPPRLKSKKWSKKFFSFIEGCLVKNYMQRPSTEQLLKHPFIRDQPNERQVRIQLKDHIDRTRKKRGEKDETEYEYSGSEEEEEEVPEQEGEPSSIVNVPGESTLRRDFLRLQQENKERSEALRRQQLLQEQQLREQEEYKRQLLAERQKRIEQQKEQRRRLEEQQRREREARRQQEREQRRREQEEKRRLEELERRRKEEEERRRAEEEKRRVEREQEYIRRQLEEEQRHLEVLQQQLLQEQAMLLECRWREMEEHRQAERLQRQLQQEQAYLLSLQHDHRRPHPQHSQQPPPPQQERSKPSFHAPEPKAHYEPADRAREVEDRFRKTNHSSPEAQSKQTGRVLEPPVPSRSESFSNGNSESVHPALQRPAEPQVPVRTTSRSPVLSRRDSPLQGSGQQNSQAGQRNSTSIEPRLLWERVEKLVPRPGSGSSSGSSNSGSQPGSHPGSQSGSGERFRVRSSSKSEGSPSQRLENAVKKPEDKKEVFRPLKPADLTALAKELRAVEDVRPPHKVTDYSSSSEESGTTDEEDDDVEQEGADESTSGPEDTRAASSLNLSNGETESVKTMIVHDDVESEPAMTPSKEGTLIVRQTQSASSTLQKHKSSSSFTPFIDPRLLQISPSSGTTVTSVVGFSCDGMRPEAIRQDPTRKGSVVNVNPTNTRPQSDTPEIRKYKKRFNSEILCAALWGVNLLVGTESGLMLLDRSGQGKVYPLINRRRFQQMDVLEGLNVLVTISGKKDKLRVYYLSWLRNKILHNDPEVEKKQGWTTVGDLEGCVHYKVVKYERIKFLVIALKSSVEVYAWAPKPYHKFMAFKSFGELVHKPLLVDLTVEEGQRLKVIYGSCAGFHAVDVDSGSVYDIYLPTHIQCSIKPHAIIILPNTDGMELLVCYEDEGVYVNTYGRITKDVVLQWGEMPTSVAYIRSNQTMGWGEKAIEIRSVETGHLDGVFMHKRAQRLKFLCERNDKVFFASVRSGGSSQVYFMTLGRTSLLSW
Method in brief: as §1

[3] = molecular target: CDK8 (UniProt P49336)
Method in brief: as §1

[4] = molecular target: TESK1 (UniProt Q15569)
Method in brief: as §1

[5] = molecular target: BRAF (UniProt P15056)
Method in brief: as §1

[6] = molecular target: CAMK2B (UniProt Q13554); details: cell material: Lysate mix
Method in brief: as §1

[7] = molecular target: UniProt P09619; details: cell material: Lysate mix
Method in brief: as §1

[8] = molecular target: UniProt Q5TCX8
Method in brief: as §1

[9] = molecular target: DAPK3 (UniProt O43293)
Method in brief: as §1

[10] = molecular target: NEK6 (UniProt Q9HC98); details: cell material: Lysate mix
Method in brief: as §1

[11] = molecular target: RIPK2 (UniProt O43353); details: cell material: Lysate mix
Method in brief: as §1

[12] = molecular target: BMPR1B (UniProt O00238); details: cell material: Lysate mix
BMPR1B, sequence (O00238 whole entry): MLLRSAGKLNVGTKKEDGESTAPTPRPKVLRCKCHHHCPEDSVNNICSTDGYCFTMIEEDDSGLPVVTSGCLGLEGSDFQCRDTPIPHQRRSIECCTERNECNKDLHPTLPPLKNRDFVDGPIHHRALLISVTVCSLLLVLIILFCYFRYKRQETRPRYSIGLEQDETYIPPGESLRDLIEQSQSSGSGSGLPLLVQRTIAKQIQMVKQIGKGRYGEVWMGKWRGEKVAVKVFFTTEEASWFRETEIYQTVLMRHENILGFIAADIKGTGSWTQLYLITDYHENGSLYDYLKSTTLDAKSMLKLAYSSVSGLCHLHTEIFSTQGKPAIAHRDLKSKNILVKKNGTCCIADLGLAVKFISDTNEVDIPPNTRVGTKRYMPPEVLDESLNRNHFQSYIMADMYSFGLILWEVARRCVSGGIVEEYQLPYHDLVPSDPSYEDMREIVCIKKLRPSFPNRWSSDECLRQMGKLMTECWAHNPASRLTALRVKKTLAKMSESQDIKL
Method in brief: as §1

[13] = molecular target: Hck (UniProt P08631); details: cell material: Lysate mix
Hck, sequence (P08631 whole entry, looked up): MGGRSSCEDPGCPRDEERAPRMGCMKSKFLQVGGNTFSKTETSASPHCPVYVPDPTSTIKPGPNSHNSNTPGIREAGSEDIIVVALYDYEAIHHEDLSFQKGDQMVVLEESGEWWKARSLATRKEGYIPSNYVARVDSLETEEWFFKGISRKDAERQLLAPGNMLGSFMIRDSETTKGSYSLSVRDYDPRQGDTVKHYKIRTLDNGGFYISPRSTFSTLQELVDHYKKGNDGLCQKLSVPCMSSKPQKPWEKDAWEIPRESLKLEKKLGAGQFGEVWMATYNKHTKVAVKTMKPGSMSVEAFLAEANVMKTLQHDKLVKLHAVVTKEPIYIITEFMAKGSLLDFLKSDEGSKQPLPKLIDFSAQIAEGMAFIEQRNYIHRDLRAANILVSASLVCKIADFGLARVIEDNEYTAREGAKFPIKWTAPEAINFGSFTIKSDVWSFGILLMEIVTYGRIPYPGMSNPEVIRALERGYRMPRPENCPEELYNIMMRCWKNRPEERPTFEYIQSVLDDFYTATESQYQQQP
Method in brief: as §1

[14] = molecular target: UniProt Q9BVS4
Method in brief: as §1

[15] = molecular target: UniProt Q8N4C8
Method in brief: as §1

[16] = molecular target: HIPK2 (UniProt Q9H2X6)
HIPK2, sequence (Q9H2X6 whole entry, looked up): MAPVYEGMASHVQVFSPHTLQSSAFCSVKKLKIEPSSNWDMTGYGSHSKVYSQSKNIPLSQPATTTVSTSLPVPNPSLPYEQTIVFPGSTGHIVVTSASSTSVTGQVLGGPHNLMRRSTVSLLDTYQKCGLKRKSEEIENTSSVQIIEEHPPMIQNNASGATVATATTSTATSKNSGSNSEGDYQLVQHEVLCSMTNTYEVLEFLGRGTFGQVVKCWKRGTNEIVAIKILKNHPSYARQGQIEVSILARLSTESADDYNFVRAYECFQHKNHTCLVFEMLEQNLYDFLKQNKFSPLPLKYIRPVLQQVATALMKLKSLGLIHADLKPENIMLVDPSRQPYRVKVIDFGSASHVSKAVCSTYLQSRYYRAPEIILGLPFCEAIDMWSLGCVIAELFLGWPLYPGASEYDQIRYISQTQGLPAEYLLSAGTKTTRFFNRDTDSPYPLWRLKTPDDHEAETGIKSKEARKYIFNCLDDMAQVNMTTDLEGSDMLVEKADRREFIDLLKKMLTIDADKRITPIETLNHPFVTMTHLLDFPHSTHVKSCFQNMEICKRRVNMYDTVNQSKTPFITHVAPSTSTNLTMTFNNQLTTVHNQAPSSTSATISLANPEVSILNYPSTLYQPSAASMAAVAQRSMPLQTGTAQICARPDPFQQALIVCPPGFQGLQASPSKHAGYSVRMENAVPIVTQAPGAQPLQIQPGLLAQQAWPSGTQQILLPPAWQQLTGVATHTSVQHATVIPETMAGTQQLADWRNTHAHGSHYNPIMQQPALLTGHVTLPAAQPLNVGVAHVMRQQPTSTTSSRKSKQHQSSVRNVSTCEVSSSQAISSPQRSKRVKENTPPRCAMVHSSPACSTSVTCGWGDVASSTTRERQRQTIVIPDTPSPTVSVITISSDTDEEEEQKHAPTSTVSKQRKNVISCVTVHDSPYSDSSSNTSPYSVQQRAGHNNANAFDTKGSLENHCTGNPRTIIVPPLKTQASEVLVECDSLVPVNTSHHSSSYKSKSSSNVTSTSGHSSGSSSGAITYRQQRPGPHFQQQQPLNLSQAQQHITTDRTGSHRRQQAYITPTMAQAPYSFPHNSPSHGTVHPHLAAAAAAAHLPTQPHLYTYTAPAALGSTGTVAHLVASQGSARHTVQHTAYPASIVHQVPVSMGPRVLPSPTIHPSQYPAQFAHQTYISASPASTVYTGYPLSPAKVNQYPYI
Method in brief: as §1

[17] = molecular target: T2, NLK (UniProt Q9UBE8)
T2 sequence (whole entry): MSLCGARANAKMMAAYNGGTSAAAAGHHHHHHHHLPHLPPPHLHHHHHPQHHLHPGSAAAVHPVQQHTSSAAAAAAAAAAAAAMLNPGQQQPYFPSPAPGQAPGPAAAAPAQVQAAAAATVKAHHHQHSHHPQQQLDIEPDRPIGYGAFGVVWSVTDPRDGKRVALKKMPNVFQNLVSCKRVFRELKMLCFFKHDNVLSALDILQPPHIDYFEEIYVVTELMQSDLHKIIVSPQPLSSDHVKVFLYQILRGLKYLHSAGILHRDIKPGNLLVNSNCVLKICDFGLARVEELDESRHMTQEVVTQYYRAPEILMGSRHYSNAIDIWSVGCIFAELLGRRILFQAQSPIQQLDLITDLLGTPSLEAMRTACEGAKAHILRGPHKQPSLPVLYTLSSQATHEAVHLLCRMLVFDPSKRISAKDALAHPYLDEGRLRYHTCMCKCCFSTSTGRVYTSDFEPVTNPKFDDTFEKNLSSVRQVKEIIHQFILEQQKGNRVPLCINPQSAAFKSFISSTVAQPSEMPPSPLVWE
Method in brief: as §1

[18] = molecular target: PRKAA2 (UniProt P54646); details: cell material: Lysate mix
Method in brief: as §1

[19] = molecular target: UniProt P21127
Method in brief: as §1

[20] = molecular target: PIM3 (UniProt Q86V86)
Method in brief: as §1

[21] = molecular target: UniProt P35916; details: cell material: Lysate mix
Method in brief: as §1

[22] = molecular target: EPHA5 (UniProt P54756); details: cell material: Lysate mix
EPHA5, sequence (P54756 whole entry): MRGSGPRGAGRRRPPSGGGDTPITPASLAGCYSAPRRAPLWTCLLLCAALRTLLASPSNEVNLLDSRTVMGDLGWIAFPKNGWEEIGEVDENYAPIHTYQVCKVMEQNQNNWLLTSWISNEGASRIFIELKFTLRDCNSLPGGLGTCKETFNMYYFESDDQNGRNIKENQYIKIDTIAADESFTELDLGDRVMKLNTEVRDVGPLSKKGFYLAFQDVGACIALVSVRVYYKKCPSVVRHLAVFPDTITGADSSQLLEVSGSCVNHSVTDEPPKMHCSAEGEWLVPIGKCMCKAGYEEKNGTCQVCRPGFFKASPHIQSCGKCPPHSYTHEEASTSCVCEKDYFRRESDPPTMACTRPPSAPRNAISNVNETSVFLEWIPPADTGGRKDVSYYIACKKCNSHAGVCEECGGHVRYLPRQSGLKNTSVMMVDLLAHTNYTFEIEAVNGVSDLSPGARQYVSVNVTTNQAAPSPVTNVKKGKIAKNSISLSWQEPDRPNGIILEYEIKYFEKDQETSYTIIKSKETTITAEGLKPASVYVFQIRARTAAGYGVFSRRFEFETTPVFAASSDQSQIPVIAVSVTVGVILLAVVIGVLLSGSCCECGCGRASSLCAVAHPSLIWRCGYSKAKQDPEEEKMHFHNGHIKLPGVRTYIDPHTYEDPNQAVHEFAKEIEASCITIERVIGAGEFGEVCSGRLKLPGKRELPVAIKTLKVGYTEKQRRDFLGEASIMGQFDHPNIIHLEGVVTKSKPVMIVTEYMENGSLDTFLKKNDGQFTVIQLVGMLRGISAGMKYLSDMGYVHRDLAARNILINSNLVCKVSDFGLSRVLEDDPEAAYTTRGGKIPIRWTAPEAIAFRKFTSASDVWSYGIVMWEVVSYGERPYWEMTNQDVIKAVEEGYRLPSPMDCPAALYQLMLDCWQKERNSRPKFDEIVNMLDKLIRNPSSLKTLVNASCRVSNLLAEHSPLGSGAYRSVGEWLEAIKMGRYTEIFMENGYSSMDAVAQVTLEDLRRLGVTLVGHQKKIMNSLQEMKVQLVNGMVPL
Method in brief: as §1

[23] = molecular target: UniProt O96017
UniProt O96017, sequence (O96017 whole entry): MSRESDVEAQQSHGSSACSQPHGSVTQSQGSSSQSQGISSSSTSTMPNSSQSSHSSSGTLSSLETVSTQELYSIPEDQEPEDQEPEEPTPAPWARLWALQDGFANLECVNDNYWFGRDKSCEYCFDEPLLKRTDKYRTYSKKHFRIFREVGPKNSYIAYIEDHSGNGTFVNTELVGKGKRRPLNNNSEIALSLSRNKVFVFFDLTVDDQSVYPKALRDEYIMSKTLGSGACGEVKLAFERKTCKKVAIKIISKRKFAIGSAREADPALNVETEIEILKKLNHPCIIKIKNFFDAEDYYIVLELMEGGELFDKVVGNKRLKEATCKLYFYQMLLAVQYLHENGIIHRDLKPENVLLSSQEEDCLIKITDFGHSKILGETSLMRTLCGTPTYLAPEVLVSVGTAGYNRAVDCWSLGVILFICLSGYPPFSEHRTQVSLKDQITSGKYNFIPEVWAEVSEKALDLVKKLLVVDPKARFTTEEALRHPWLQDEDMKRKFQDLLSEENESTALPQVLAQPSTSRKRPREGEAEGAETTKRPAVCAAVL
Method in brief: as §1

[24] = molecular target: ROCK2 (UniProt O75116)
Method in brief: as §1

[25] = molecular target: LCK (UniProt P06239)
Method in brief: as §1

[26] = molecular target: UniProt O75460
Method in brief: as §1

pIC50 [1]: 4.8
pIC50 ([2]; cell material: Lysate mix): < 4.52
pIC50 ([3]; cell material: Lysate mix): < 4.52
pIC50 ([4]; cell material: Lysate mix): < 4.52
pIC50 ([5]; cell material: Lysate mix): < 4.52
pIC50 [6]: < 4.52
pIC50 [7]: < 4.52
pIC50 ([8]; cell material: Lysate mix): < 4.52
pIC50 ([9]; cell material: Lysate mix): < 4.52
pIC50 [10]: < 4.52
pIC50 [11]: < 4.52
pIC50 [12]: < 4.52
pIC50 [13]: < 4.52
pIC50 ([14]; cell material: Lysate mix): < 4.52
pIC50 ([15]; cell material: Lysate mix): < 4.52
pIC50 ([16]; cell material: Lysate mix): < 4.52
pIC50 ([17]; cell material: Lysate mix): < 4.52
pIC50 [18]: 5.31
pIC50 ([19]; cell material: Lysate mix): < 4.52
pIC50 ([20]; cell material: Lysate mix): < 4.52
pIC50 [21]: < 4.52
pIC50 [22]: < 4.52
pIC50 ([23]; cell material: Lysate mix): 5.23
pIC50 ([24]; cell material: Lysate mix): < 4.52
pIC50 ([25]; cell material: Lysate mix): < 4.52
pIC50 ([26]; cell material: Lysate mix): < 4.52
SMILES: Cc1cc(Nc2cc(C(=O)NCCNC(=O)OC3CC/C=C/CCC3)nc(N3CCN(Cc4ccc(S(=O)(=O)F)cc4)CC3)n2)n[nH]1 (stereo unspecified)

pIC50 [1]: 6.23
pIC50 ([2]; cell material: Lysate mix): < 4.52
pIC50 ([3]; cell material: Lysate mix): < 4.52
pIC50 ([4]; cell material: Lysate mix): < 4.52
pIC50 ([5]; cell material: Lysate mix): < 4.52
pIC50 [6]: < 4.52
pIC50 [7]: < 4.52
pIC50 ([8]; cell material: Lysate mix): < 4.52
pIC50 ([9]; cell material: Lysate mix): 4.77
pIC50 [10]: < 4.52
pIC50 [11]: < 4.52
pIC50 [12]: < 4.52
pIC50 [13]: 5.4
pIC50 ([14]; cell material: Lysate mix): < 4.52
pIC50 ([15]; cell material: Lysate mix): < 4.52
pIC50 ([16]; cell material: Lysate mix): 4.98
pIC50 ([17]; cell material: Lysate mix): < 4.52
pIC50 [18]: 6.53
pIC50 ([19]; cell material: Lysate mix): < 4.52
pIC50 ([20]; cell material: Lysate mix): < 4.52
pIC50 [21]: < 4.52
pIC50 [22]: < 4.52
pIC50 ([23]; cell material: Lysate mix): 4.98
pIC50 ([24]; cell material: Lysate mix): < 4.52
pIC50 ([25]; cell material: Lysate mix): 5.66
pIC50 ([26]; cell material: Lysate mix): < 4.52
SMILES: C#CCNC(=O)c1cc(Nc2cc(C)[nH]n2)nc(N2CCN(Cc3ccc(S(=O)(=O)F)cc3)CC2)n1

pIC50 [1]: 5.44
pIC50 ([2]; cell material: Jurkat cells): 5.15
pIC50 ([2]; cell material: Jurkat lysate): < 4.52
pIC50 ([2]; cell material: Lysate mix): < 4.52
pIC50 ([3]; cell material: Jurkat cells): < 4.52
pIC50 ([3]; cell material: Jurkat lysate): < 4.52
pIC50 ([3]; cell material: Lysate mix): < 4.52
pIC50 ([4]; cell material: Jurkat cells): < 4.52
pIC50 ([4]; cell material: Jurkat lysate): < 4.52
pIC50 ([4]; cell material: Lysate mix): < 4.52
pIC50 ([5]; cell material: Jurkat cells): < 4.52
pIC50 ([5]; cell material: Jurkat lysate): < 4.52
pIC50 ([5]; cell material: Lysate mix): < 4.52
pIC50 [6]: < 4.52
pIC50 [7]: < 4.52
pIC50 ([8]; cell material: Jurkat cells): 4.93
pIC50 ([8]; cell material: Jurkat lysate): < 4.52
pIC50 ([8]; cell material: Lysate mix): < 4.52
pIC50 ([9]; cell material: Jurkat cells): < 4.52
pIC50 ([9]; cell material: Lysate mix): < 4.52
pIC50 [10]: < 4.52
pIC50 [11]: < 4.52
pIC50 [12]: < 4.52
pIC50 [13]: < 4.52
pIC50 ([14]; cell material: Jurkat cells): < 4.52
pIC50 ([14]; cell material: Jurkat lysate): < 4.52
pIC50 ([14]; cell material: Lysate mix): < 4.52
pIC50 ([15]; cell material: Jurkat cells): 5.12
pIC50 ([15]; cell material: Jurkat lysate): < 4.52
pIC50 ([15]; cell material: Lysate mix): < 4.52
pIC50 ([16]; cell material: Jurkat cells): 5.49
pIC50 ([16]; cell material: Jurkat lysate): < 4.52
pIC50 ([16]; cell material: Lysate mix): < 4.52
pIC50 ([17]; cell material: Jurkat cells): < 4.52
pIC50 ([17]; cell material: Jurkat lysate): < 4.52
pIC50 ([17]; cell material: Lysate mix): < 4.52
pIC50 [18]: 5.5
pIC50 ([19]; cell material: Jurkat cells): < 4.52
pIC50 ([19]; cell material: Jurkat lysate): < 4.52
pIC50 ([19]; cell material: Lysate mix): < 4.52
pIC50 ([20]; cell material: Jurkat cells): 5.49
pIC50 ([20]; cell material: Jurkat lysate): < 4.52
pIC50 ([20]; cell material: Lysate mix): < 4.52
pIC50 [21]: < 4.52
pIC50 [22]: < 4.52
pIC50 ([23]; cell material: Jurkat cells): 5.78
pIC50 ([23]; cell material: Jurkat lysate): 4.92
pIC50 ([23]; cell material: Lysate mix): 4.71
pIC50 ([24]; cell material: Jurkat cells): < 4.52
pIC50 ([24]; cell material: Lysate mix): < 4.52
pIC50 ([25]; cell material: Jurkat cells): 5.67
pIC50 ([25]; cell material: Jurkat lysate): < 4.52
pIC50 ([26]; cell material: Jurkat lysate): < 4.52
pIC50 ([26]; cell material: Lysate mix): < 4.52
SMILES: O=C(NCCNC(=O)c1cc(Nc2cc(C3CC3)[nH]n2)nc(N2CCN(Cc3ccc(S(=O)(=O)F)cc3)CC2)n1)OC1CC/C=C/CCC1 (stereo unspecified)
